{"source": "paper PMC10822168", "about": "“Development of potent isoflavone-based formyl peptide receptor 1 (FPR1) antagonists and their effects in gastric cancer cell models” (European journal of medicinal chemistry, 2023)", "key": {"in vitro": {"experiment": "in vitro", "details": "rat, pH 7.4"}, "human FPR1": {"molecular_target": "T1, human FPR1 (Homo sapiens, UniProt P21462)", "T1 sequence (P21462 1-350)": "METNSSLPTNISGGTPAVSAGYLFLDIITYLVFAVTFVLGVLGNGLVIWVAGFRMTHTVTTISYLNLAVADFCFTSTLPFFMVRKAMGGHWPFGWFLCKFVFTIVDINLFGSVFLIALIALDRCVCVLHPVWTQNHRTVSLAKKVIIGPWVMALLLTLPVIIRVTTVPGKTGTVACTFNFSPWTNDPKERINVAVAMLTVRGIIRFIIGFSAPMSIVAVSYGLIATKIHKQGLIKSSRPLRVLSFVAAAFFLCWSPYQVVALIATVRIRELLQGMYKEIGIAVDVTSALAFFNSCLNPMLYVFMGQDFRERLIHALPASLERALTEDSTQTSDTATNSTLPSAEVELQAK", "experiment": "Antagonist effect on Ca2+ mobilization in FPR1-HL60 transfected cells", "details": "inhibition of Ca2+ mobilization induced by 5 nM fMLF, N.A. = Not Active; for IC50: read-out: FPR1-HL60 (IC50)"}, "ANGPT2 mRNA": {"test_system": "ANGPT2 mRNA", "experiment": "Real-time PCR of ANGPT2 mRNA expression in NCl–N87 and AGS cells", "format": "cell-based, human", "details": "24 h, fMLF 10 nM, antagonists 1 or 2 μM, normalized to GAPDH, untreated = 1", "text": "(§1) It has been reported that FPR1 can exert a tumor suppressor function in human GC by inhibiting angiogenesis and that silencing of the receptor increases the constitutive proangiogenic potential of GC cells. Therefore, we assessed the effect of 24a and 25a on the mRNA expression level and secretion of the proangiogenic factors, the vascular growth factor A (VEGFA), and the angiopoietin 2. […] These effects were more pronounced in NCl–N87 cells and resulted more strongly for 25a than 24a. The values obtained after each treatment were normalized to the expression of GAPDH and compared to the reference value of the two genes in untreated cells, which were set equal to 1 (Fig. 9).\n(§2) Fig. 9. Effect of 24a and 25a on mRNA expression of VGFA and ANGPT2 in NCl–N87 and AGS cell lines. Real-time PCR experiments in NCl–N87 and AGS cells with specific primers for VEGFA and ANGPT2 genes. The mRNA expression was normalized on the GAPDH housekeeping gene. Expression analysis was performed after treatment with fMLF (10 nM) and 24a or 25a (1, 2, 5 μM) administrated alone or combining the lowest dose of 24a or 25a with fMLF. All expression values were calculated against the value of untreated PTX-sensitive cells, set equal to 1. Statistical analysis was assessed by comparing the values obtained using single drug treatment to those of corresponding untreated cells and the combined treatments to those of single treatments. The values of untreated PTX-resistant cells were compared with those of untreated PTX-sensitive ones. Data were mean ± SD (n = 3). *p < 0.05, **p < 0.001, ***p < 0.0002, ****p < 0.0001.\n(§3) Total RNA was extracted from FPR1 antagonist-treated NCl–N87 and AGS treated cells using the Qiagen RNeasy Mini Kit (Qiagen, Hilden, Germany) following the manufacturer’s instructions. Samples were retro-transcribed using the iScript Advanced cDNA Synthesis Kit (Bio-Rad Laboratories, California, USA). Real-Time-PCRs analyzed cDNA samples for the evaluation of VEGFA and ANGPT2 expression. […] Relative quantification was performed using the ddCT method."}, "NCl–N87 cells [1]": {"test_system": "NCl–N87 cells", "experiment": "MTT viability assay in NCl–N87 cells", "format": "cell-based", "details": "Homo sapiens", "text": "(§4) We decided to study, for the first time, the effect of pharmacological blockade of FPR1 on cell proliferation, cell migration, and angiogenesis in GC by using our antagonists 24a and 25a. We first assessed the expression levels of FPR1 and FPR2 mRNA in four GC cell lines, i.e., HGC27, derived from human gastric carcinoma, KATOIII, AGS, and NCl–N87, derived from human gastric adenocarcinoma. […] We first assessed the effect of compounds 24a and 25a on cell viability in both cell lines at 24, 48, and 72 h using the MTT assay (Table 2).\n(§5) AGS and NCl–N87 human gastric cancer cell lines were purchased and authenticated by American Type Culture Collection (Manassas, Virginia, USA). All cell culture components were purchased from Sigma-Aldrich (Milan, Italy) and Celbio s.r.l. (Milano, Italy).\n(§6) AGS and NCl–N87 human gastric cancer cell lines were grown in RPMI high glucose supplemented with 10% fetal bovine serum, 2 mM glutamine, 100 U/mL penicillin, 100 μg/mL streptomycin, in a humidified incubator at 37 °C with a 5% CO2 atmosphere.\n(§7) Determination of cell growth was performed using the MTT assay at 24h, 48 h, and 72 h. On day 1, 5000 cells/well were seeded into 96-well plates in a volume of 100 μL. On day 2, the test compound was added at different concentrations. In all the experiments, the solvent used to dissolve the drug (ethanol, DMSO) was added in each control to evaluate possible cytotoxicity. After the established incubation time with drugs, MTT (0.5 mg/mL) was added to each well. Following 3 h incubation at 37 °C, the supernatant was removed. The formazan crystals were solubilized using 100 μL of DMSO and the absorbance values at 570 and 630 nm were determined on a Victor 3 microplate reader (PerkinElmer)."}, "VEGFA mRNA": {"test_system": "VEGFA mRNA", "experiment": "Real-time PCR of VEGFA mRNA expression in NCl–N87 and AGS cells", "format": "cell-based, human", "details": "24 h, fMLF 10 nM, antagonists 1 or 2 μM, normalized to GAPDH, untreated = 1", "text": "as §1, §2, §3"}, "AGS cells": {"test_system": "AGS cells", "experiment": "MTT viability assay in AGS cells", "format": "cell-based", "details": "Homo sapiens", "text": "as §4, §5, §6, §7"}, "NCl–N87 cells [2]": {"test_system": "NCl–N87 cells", "experiment": "Muse Ki67 proliferation assay in NCl–N87 cells", "format": "cell-based, human", "details": "NCl–N87, 5 μM, 24 h; control cells 81.3%", "method": "Representative flow cytometry charts reporting percentage of Ki67 negative (blue) and positive (red) cells (panel A). Statistical charts reporting the results from three independent experiments and expressed as means ± SD (panel B). Statistical analysis was assessed by comparing the values obtained using single drug treatment to those of corresponding untreated cells and the combined treatments to those of the single treatments, *p < 0.05; **p < 0.001; ***p < 0.0001.\nThe Muse Ki67 Proliferation Assay was used with the Guava Muse Cell Analyzer according to manufacturer’s instructions (Luminex Corporation, Austin, USA). Briefly, the cells were stained after fixation and permeabilization procedures by using Hu Ki67 or Hu IgG1 control fluorochrome-conjugated antibodies to distinguish Ki67^+ or Ki67^− cells, respectively. The software provided the percentage of both Ki67(+) and Ki67(−) cells."}, "[3]": {"details": "48 h, read-out: NCl–N87 EC50 (μM ± S.E.M.) 48 h"}, "[4]": {"details": "read-out: NCl–N87 EC50 (μM ± S.E.M.) 24 h, 24 h"}, "[5]": {"details": "read-out: NCl–N87 EC50 (μM ± S.E.M.) 72 h, 72 h"}, "[6]": {"details": "48 h, read-out: AGS EC50 (μM ± S.E.M.) 48 h"}, "[7]": {"details": "read-out: AGS EC50 (μM ± S.E.M.) 24 h, 24 h"}, "[8]": {"details": "read-out: AGS EC50 (μM ± S.E.M.) 72 h, 72 h"}}, "note": "Where two headings read alike, the source gives them in different places.", "data": [{"compound": "CCCCCCc1cc2c(=O)c(-c3ccccc3OC)c(C)oc2cc1NC(C)=O", "note": "[Compound 35a, N-[6-Hexyl-3-(2-methoxyphenyl)-2-methyl-4-oxo-4H-chromen-7-yl]acetamide]", "values": [{"measurement": "remaining at 0.5 h, 10 µM", "setting": "in vitro; rat liver microsomes", "value": 14, "unit": "%"}]}, {"compound": "CCCc1cc2c(=O)c(-c3cccc(OC)c3)c(C)oc2cc1OC(C)=O", "note": "[Compound 26b, 3-(3-Methoxyphenyl)-2-methyl-4-oxo-6-propyl-4H-chromen-7-yl acetate]", "values": [{"measurement": "IC50", "setting": "human FPR1", "value": "0.15 ± 0.05", "unit": "µM"}]}, {"compound": "CCCCc1cc2c(=O)c(-c3ccccc3OC)c(C)oc2cc1OC(C)=O", "note": "[Compound 28, 6-Butyl-3-(2-methoxyphenyl)-2-methyl-4-oxo-4H-chromen-7-yl acetate]", "values": [{"measurement": "IC50", "setting": "human FPR1", "value": "0.8 ± 0.3", "unit": "µM"}]}, {"compound": "CCCc1cc2c(=O)c(-c3ccccc3OC)c(C)oc2cc1OC(=O)N(C)C", "note": "[Compound 39, 3-(2-Methoxyphenyl)-2-methyl-4-oxo-6-propyl-4H-chromen-7-yl dimethylcarbamate]", "values": [{"measurement": "remaining at 0.5 h, 10 µM", "setting": "in vitro; Liver", "value": 10, "unit": "%"}, {"measurement": "FPR1-HL60 (IC50, μM)", "setting": "human FPR1", "value": "practically inactive"}, {"measurement": "IC50", "setting": "human FPR1", "value": "28.9 ± 7.6", "unit": "µM"}]}, {"compound": "CCCCCCc1cc2c(=O)c(-c3ccccc3OC)c(C)oc2cc1OCC(F)F", "note": "[Compound 30, 7-(2,2-Difluoroethoxy)-6-hexyl-3-(2-methoxyphenyl)-2-methyl-4H-chromen-4-one]", "values": [{"measurement": "remaining at 0.5 h, 10 µM", "setting": "in vitro; rat liver microsomes", "value": 18, "unit": "%"}]}, {"compound": "CCCCCc1cc2c(=O)c(-c3ccccc3OC)c(C)oc2cc1OC(C)=O", "note": "[Compound 29, 3-(2-Methoxyphenyl)-2-methyl-4-oxo-6-pentyl-4H-chromen-7-yl acetate]", "values": [{"measurement": "IC50", "setting": "human FPR1", "value": "0.4 ± 0.1", "unit": "µM"}]}, {"compound": "CCCCCCc1cc2c(=O)c(-c3ccccc3OC)c(C)oc2cc1OC(C)=O", "note": "[Compound 24a, 6-Hexyl-3-(2-methoxyphenyl)-2-methyl-4-oxo-4H-chromen-7-yl acetate]", "values": [{"measurement": "angiopoietin 2 (ANGPT2) mRNA expression", "setting": "ANGPT2 mRNA", "value": "dose-dependent increase"}, {"measurement": "EC50", "setting": "NCl–N87 cells [1]; [3]", "value": "8.65 ± 0.65", "unit": "µM"}, {"measurement": "EC50", "setting": "NCl–N87 cells [1]; [4]", "value": "32.9 ± 2.95", "unit": "µM"}, {"measurement": "EC50", "setting": "NCl–N87 cells [1]; [5]", "value": "11.5 ± 1.2", "unit": "µM"}, {"measurement": "VEGFA mRNA expression", "setting": "VEGFA mRNA", "value": "dose-dependent increase"}, {"measurement": "EC50", "setting": "AGS cells; [6]", "value": "11 ± 1.91", "unit": "µM"}, {"measurement": "EC50", "setting": "AGS cells; [7]", "value": "24.7 ± 4", "unit": "µM"}, {"measurement": "EC50", "setting": "AGS cells; [8]", "value": "7.55 ± 1.75", "unit": "µM"}, {"measurement": "percentage of Ki67(+) cells", "setting": "NCl–N87 cells [2]", "value": 73.1, "unit": "%"}]}, {"compound": "CCCCCCc1cc2c(=O)c(-c3ccccc3OC)c(C(F)(F)F)oc2cc1OC(C)=O", "note": "[Compound 25a, 6-Hexyl-3-(2-methoxyphenyl)-4-oxo-2-(trifluoromethyl)-4H-chromen-7-yl acetate]", "values": [{"measurement": "angiopoietin 2 (ANGPT2) mRNA expression", "setting": "ANGPT2 mRNA", "value": "dose-dependent increase"}, {"measurement": "EC50", "setting": "NCl–N87 cells [1]; [3]", "value": "10.2 ± 1", "unit": "µM"}, {"measurement": "EC50", "setting": "NCl–N87 cells [1]; [4]", "value": "13.3 ± 1.88", "unit": "µM"}, {"measurement": "EC50", "setting": "NCl–N87 cells [1]; [5]", "value": "2.65 ± 0.5", "unit": "µM"}, {"measurement": "VEGFA mRNA expression", "setting": "VEGFA mRNA", "value": "dose-dependent increase"}, {"measurement": "EC50", "setting": "AGS cells; [6]", "value": "8 ± 0.1", "unit": "µM"}, {"measurement": "EC50", "setting": "AGS cells; [7]", "value": "16.7 ± 0.7", "unit": "µM"}, {"measurement": "EC50", "setting": "AGS cells; [8]", "value": "5.45 ± 3.45", "unit": "µM"}]}, {"compound": "CCCCCCC(=O)Oc1cc2oc(C)c(-c3cccc(OC)c3)c(=O)c2cc1C", "note": "[Compound 37b, 3-(3-Methoxyphenyl)-2,6-dimethyl-4-oxo-4H-chromen-7-yl heptanoate]", "values": [{"measurement": "IC50", "setting": "human FPR1", "value": "21.9 ± 6.5", "unit": "µM"}]}, {"compound": "CCCc1cc2c(=O)c(-c3ccccc3OC)c(C)oc2cc1NC(C)=O", "note": "[Compound 36, N-[3-(2-methoxyphenyl)-2-methyl-4-oxo-6-propyl-4H-chromen-7-yl]acetamide]", "values": [{"measurement": "remaining at 0.5 h, 10 µM", "setting": "in vitro; rat liver microsomes", "value": 15, "unit": "%"}]}, {"compound": "CCCCCCc1cc2c(=O)c(-c3cccc(OC)c3)c(C(F)(F)F)oc2cc1OC(C)=O", "note": "[Compound 25b, 6-Hexyl-3-(3-methoxyphenyl)-4-oxo-2-(trifluoromethyl)-4H-chromen-7-yl acetate]", "values": [{"measurement": "IC50", "setting": "human FPR1", "value": "0.16 ± 0.03", "unit": "µM"}]}]}
